Measurements as given in ChEMBL document CHEMBL2176963, “Design, synthesis, and biological evaluation of 3-(1H-1,2,3-triazol-1-yl)benzamide derivatives as Potent Pan Bcr-Abl inhibitors including the threonine(315)→isoleucine(315) mutant” (J Med Chem, 2012).

Legend:
[1] = test system: K562; experiment: Antiproliferative activity against human K562 cells expressing wild type Bcr-Abl after 72 hrs by CCK-8 assay; settings: K562, 72 h
[2] = cells; settings: Mus musculus, BaF3, 72 h
[3] = test system: K562; experiment: Antiproliferative activity against imatinib-resistant human K562 cells expressing Bcr-Abl Q252H mutant after 72 hrs by CCK-8 assay; settings: K562, 72 h
[4] = Antiproliferative activity against mouse BA/F3 cells expressing wild type Bcr-Abl after 72 hrs by CCK-8 assay; settings: BaF3, 72 h
[5] = Antiproliferative activity against human KU812 cells expressing wild type Bcr-Abl after 72 hrs by CCK-8 assay; settings: KU812, 72 h

Row | Compound | IC50 [1] [nM] | IC50 [2] [nM] | IC50 [3] [nM] | IC50 [4] [nM] | IC50 [5] [nM]
1 | Cc1ccc(C(=O)Nc2ccc(CN3CCN(C)CC3)c(C(F)(F)F)c2)cc1-n1cc(-c2ccc3[nH]ccc3c2)nn1 | 70.4 | 999 | 800 | 435 | 19.6
2 | Cc1ccc(C(=O)Nc2ccc(CN3CCN(C)CC3)c(C(F)(F)F)c2)cc1-n1cc(-c2cnn3cccnc23)nn1 | 2.45 | 1440 | 17.1 | 7.31 | 1.51
3 | Cc1ccc(C(=O)Nc2ccc(CN3CCN(C)CC3)c(C(F)(F)F)c2)cc1-n1cc(-c2cnc3[nH]ccc3c2)nn1 | 0.42 | 66.9 | 3.89 | 3.16 | 0.14
4 | CNc1ncc(-c2cn(-c3cc(C(=O)Nc4ccc(CN5CCN(C)CC5)c(C(F)(F)F)c4)ccc3C)nn2)cn1 | 0.67 | 299 | 11 | 2.74 | 0.16
5 | Cc1ccc(C(=O)Nc2ccc(CN3CCC(N(C)C)CC3)c(C(F)(F)F)c2)cc1-n1cc(-c2cnc3[nH]ncc3c2)nn1 | 0.67 | 527 | 6.56 | 2.76 | 0.43
6 | Cc1ccc(C(=O)Nc2ccc(CN3CCN(C)CC3)c(C(F)(F)F)c2)cc1-n1cc(-c2cnc(N3CCCCC3)nc2)nn1 | 798 | 3590 | 893 | 1240 | 158
7 | Cc1ccc(C(=O)Nc2ccc(CN3CCCCC3)c(C(F)(F)F)c2)cc1-n1cc(-c2cnc3[nH]ncc3c2)nn1 | 3.22 | 3510 | 31.1 | 5.39 | 0.47
8 | Cc1ccc(C(=O)Nc2ccc(CN3CCN(C)CC3)c(C(F)(F)F)c2)cc1-n1cc(-c2cnc3cccnn23)nn1 | 35.8 | > 10000 | 1.41 | 27.4 | 14.6
9 | CCNc1ncc(-c2cn(-c3cc(C(=O)Nc4ccc(CN5CCN(C)CC5)c(C(F)(F)F)c4)ccc3C)nn2)cn1 | 1.26 | 405 | 20.2 | 3.04 | 0.2
10 | Cc1ccc(C(=O)Nc2ccc(CN3CCN(C)CC3)c(C(F)(F)F)c2)cc1-n1cc(-c2cnc(NCc3ccccc3)nc2)nn1 | 8.82 | 3500 | 181 | 28.2 | 1.89
11 | Cc1ccc(C(=O)Nc2ccc(CN3CCOCC3)c(C(F)(F)F)c2)cc1-n1cc(-c2cnc3[nH]ncc3c2)nn1 | 3.41 | 1560 | 41.1 | 4.46 | 0.46
12 | CC(C)c1ccc(C(=O)Nc2ccc(CN3CCN(C)CC3)c(C(F)(F)F)c2)cc1-n1cc(-c2cnc3[nH]ncc3c2)nn1 | 74 | 2060 | 219 | 420 | 14.2
13 | Cc1ccc(C(=O)Nc2ccc(CN3CCN(C)CC3)c(C(F)(F)F)c2)cc1-n1cc(-c2cnc3ncccn23)nn1 | 3.87 | 8840 | 16.2 | 47.9 | 11.1
14 | Cc1ccc(C(=O)Nc2ccc(CN3CCN(C)CC3)c(C(F)(F)F)c2)cc1-n1cc(-c2cnc3ncnn3c2)nn1 | 40.9 | 533 | 76.8 | 316 | 11.2
15 | Cc1ccc(C(=O)Nc2ccc(CN3CC[C@@H](N(C)C)C3)c(C(F)(F)F)c2)cc1-n1cc(-c2cnc3[nH]ncc3c2)nn1 | 0.31 | 544 | 3.15 | 3.43 | 0.24
16 | Cc1ccc(Nc2ncc3c(n2)N(C)C(=O)N(c2cc(NC(=O)c4cccc(C(F)(F)F)c4)ccc2C)C3)cn1 | 0.44 | 6.18 | 2.6 | 3.15 | 0.08
17 | Cc1ccc(C(=O)Nc2ccc(CN3CCCC3)c(C(F)(F)F)c2)cc1-n1cc(-c2cnc3[nH]ncc3c2)nn1 | 0.66 | 939 | 12.1 | 2.47 | 0.19
18 | Cc1ccc(C(=O)Nc2ccc(CN3CCN(C)CC3)c(C(F)(F)F)c2)cc1-n1cc(-c2cnc3[nH]nc(C)c3c2)nn1 | 0.39 | 79.6 | 4.74 | 2.03 | 0.15
